Read-outs that look alike come from different tables or passages of the source. One block for each compound: values may come before it.
Tests used:
[1] = tested on: Myc-Max dimerization; set-up: method as in PMID 13679853; settings: cited from earlier work
[2] = tested on: Max; set-up: method as in PMID 13679853; settings: cited from earlier work
[3] = biological target: T1, Myc402–412 peptide (Homo sapiens, UniProt P01106); set-up: method as in PMID 19022175; settings: 20 µM peptide; cited from earlier work
T1 construct: purchased Genscript; host or cells: solid phase peptide synthesis

[4] = biological target: T2, P21 Max (Homo sapiens, UniProt P61244); assay: Circular dichroism with and without 34RH; settings: 4 µM P21 Max, 50 µM 34RH, pH 7.4
T2 construct: 6xHis tag + TEV site (N, cleaved yes); made in house; host or cells: E. coli BL21(DE3) pLysS
Experimental: (§1) Samples containing Myc353–437, Myc402–412 peptide, MaxRH, Max isoforms, or mutants in the absence and presence of excess concentrations of 34RH were prepared in 1xCD buffer (50 mM KF, 4.3 mM NaH2PO4, 1.4 mM KH2PO4, 5% ethanol). The pH of the buffer was adjusted to either 6 or 7.4 depending on the experiment conducted. The compound was delivered from a 1 mM ethanol stock solution. Samples were incubated for 1 hr before measurement. The far UV-spectra of the proteins and peptide were recorded in a quartz cuvette with a path length of 0.1 cm using a Jasco J720 spectropolarimeter. The samples were scanned from 270 to 195 nm with an increment of 1 nm, constant bandwidth of 10 nm, and a scanning speed of 1 nm per minute. After subtracting the buffer signal, the raw data in millidegrees was converted to mean residue ellipticity (MRE).

[5] = biological target: T3, MaxRH (Homo sapiens, UniProt P61244, K77E/M74V/Q72L/R75Q/R76A/Y73S); assay: Circular dichroism with and without 34RH; settings: 1 µM MaxRH, 50 µM 34RH
T3 construct: 6xHis tag + TEV site (N, cleaved yes); made in house; host or cells: E. coli BL21(DE3) pLysS
Experimental: as §1

[6] = biological target: T4, P22 Max (Homo sapiens, UniProt P61244); assay: Circular dichroism with and without 34RH; settings: 1 µM P22 Max, 50 µM 34RH, pH 7.4
T4 construct: 6xHis tag + TEV site (N, cleaved yes); made in house; host or cells: E. coli BL21(DE3) pLysS
Experimental: as §1

[7] = biological target: T5, Myc353–437 (Homo sapiens, UniProt P01106); assay: Circular dichroism with and without 34RH; settings: 2.5 µM Myc353–437, 50 µM 34RH
T5 construct: 6xHis tag + TEV site (N, cleaved yes); made in house; host or cells: E. coli BL21(DE3) pLysS
Experimental: as §1

[8] = biological target: T6, MaxRH-Y115F/Y123F (Homo sapiens, UniProt P61244, K77E/M74V/Q72L/R75Q/R76A/Y115F/Y123F/Y73S); assay: Circular dichroism with and without 34RH; settings: 1 µM MaxRH-Y115F/Y123F, 50 µM 34RH
T6 construct: 6xHis tag + TEV site (N, cleaved yes); made in house; host or cells: E. coli BL21(DE3) pLysS
Experimental: as §1

[9] = Dynamic light scattering (DLS) of 34RH; assay type: physicochemical; settings: for DLS correlation function (nano-sized particles): 1xPBS, 5% DMSO, pH 7.4
Experimental: The small molecule (Z)-4-((4-oxo-2-thioxothiazolidin-5-ylidene)methyl)benzoic acid (hereafter referred to as 34RH) was previously synthesized according to established procedures, and the structure was confirmed by ^1H and ^13C NMR (Figure S6) using a 400 MHz spectrometer. The dry compound was stored at 4 °C. Stock solutions (1 mM) of 34RH were made using either dimethyl sulfoxide (DMSO) or ethanol and stored at −20 °C. Fluorescence and dynamic light scattering (DLS) experiments were performed using DMSO, while circular dichroism (CD) was conducted using ethanol to avoid the high absorbance of DMSO at short wavelengths. DLS measurements were performed on 34RH using an LS Spectrophotometer (LS Instruments) at 25 °C (Figure S3). The dispersant viscosity was set for water. Samples were analyzed in 1xPBS (pH 7.4) and 5% total DMSO. The compound was serially diluted two-fold from 100 μM to a final concentration of 6.25 μM. Samples were placed into 5 mm cylindrical glass cuvettes (LS Instruments) and measured using a 600 nm laser at a 90° angle for 20 s. The data were analyzed using LS Spectrophotometer software provided by the manufacturer.

[10] = biological target: T5, Myc353–437; assay: Equimolar tyrosine fluorescence quenching titration; settings: equimolar Myc353–437 and 34RH, 1x PBS, 25 °C, pH 7.4; 1:1 binding model
Experimental: 5 x 1 05 y = m 1 * x/ ( m 2 + x)
Wavel ength (nm ) [34Rh] µM
Fig S5. Equimolar Myc353-437 and 34RH interaction monitored via tyrosine fluorescence quenching. (A) 50 µM Myc353-437 in the presence (filled black squares) and absence (open black squares) equimolar 34RH in 1x PBS at 25 ℃, pH 7.4. (B) Equilibrium quenching of […]
µM. Error bars represent the standard error of three independent trials. Representative fluorescence signals were inner filter corrected to account for any fluorescence suppression due the absorbance of protein and 34RH [46]. The quenching data was fitted to a binding model shown below described in Dobrev et al.
Fraction Quenched = Q!"# × $
Here, Qmax is the fraction quenched for the formation of the complete complex between Myc353-437 and 34RH. [C]tot is the total concentration of Myc353-437 or 34RH and KD the dissociation constant.

[11] = biological target: T7, Myc353–437 E410N (Homo sapiens, UniProt P01106, E425N); assay: Tyrosine fluorescence quenching titration; assay type: binding; settings: Myc353–437 E410N mutant
T7 construct: 6xHis tag + TEV site (N, cleaved yes); made in house; host or cells: E. coli BL21(DE3) pLysS
Experimental: (§2) The lyophilized protein (or peptide) was reconstituted in ultrapure water and incubated to room temperature for at least 1 hr. The protein or peptide was then sterile filtered using a pre-wet 0.2 μm polyethylene sulfone (PES) filter (VWR), and the concentration was determined by the absorbance at 274 nm using the extinction coefficient per tyrosine of ε274 = 1470 M^−1cm^−1. The final stock concentrations ranged from 50 to 100 μM.
(§3) For excess 34RH tyrosine fluorescence quenching experiments, samples were prepared with the following buffer components: sterile filtered water, 1xPBS (137 mM NaCl, 2.7 mM KCl, 4.3 mM Na2HPO4, 1.4 mM KH2PO4), and 5% total DMSO. The pH of the buffer was adjusted to 6 or 7.4 depending on the experiment performed. Three separate samples were prepared in 1xPBS and 5% total DMSO: one containing 50 μM 34RH alone, one containing 1 μM of protein and 50 μM 34RH, and one containing 1 μM protein alone. For the 34RH containing samples, the compound was delivered from a 1 mM DMSO stock. These samples were then serially diluted two-fold from 50 μM 34RH to 1.56 μM 34RH. All samples for fluorescence measurements maintained a final 5% DMSO concentration.
(§4) The samples were incubated for at least 15 min before fluorescence was measured. The samples were excited at 274 nm, and the emission spectra were obtained from 285 to 340 nm using 5 nm excitation and 5 nm emission slits using a Horiba Fluoromax 4 fluorometer. The fluorescence data were background corrected using buffer (for samples with only protein) or small molecule (for samples containing protein and 34RH) (Figure S4). The absorbance due to 34RH and protein at the excitation and emission wavelengths can suppress the observed fluorescence intensity to give rise to the inner filter effect. To account for this suppression, we corrected the fluorescence signals using Equation (3). This correction accounted for the fluorescence suppression due to the absorbance of both 34RH and the protein [47]. (3) Fcorr=Fobs∗ 10^Aex+ Aem/2
(§5) Here, the corrected fluorescence is Fcorr, the background-subtracted observed fluorescence is Fobs, and Aex and Aem are the total absorbance at the excitation and emission wavelengths, respectively. The amount of protein fluorescence quenched by 34RH at a particular concentration was calculated using Fcorr at λ = 304 nm (Equation (4)). (4) Fraction Quenched=1−Fcorr304nm of Protein +34RH/ Fcorr304nm of Protein only
(§6) The quenching data were fit to a Langmuir binding isotherm using Equation (5), from which the dissociation constant (KD) was obtained. Here, Qmax describes the maximum fraction quenched, [L]T is the total 34RH concentration, and [P]T is the total protein concentration. The total concentration of the protein was 1 µM for all fluoresce experiments conducted at a constant protein concentration. (5) Fraction Quenched=Qmax∗([L]T+P]T+ KD−(L]T+P]T+ KD)^2−4 ∗ L]T ∗ P]T/2∗[L]T

[12] = biological target: T2, P21 Max; assay: Tyrosine fluorescence quenching titration; assay type: binding; settings: 1 µM P21 Max, pH 7.4
Experimental: as §2, §3, §4, §5, §6

[13] = biological target: T3, MaxRH; assay: Tyrosine fluorescence quenching titration; assay type: binding; settings: for Kd: 1 µM MaxRH, read-out: dissociation constant (KD)
Experimental: as §2, §3, §4, §5, §6

[14] = biological target: T4, P22 Max; assay: Tyrosine fluorescence quenching titration; assay type: binding; settings: 1 µM P22 Max
Experimental: as §2, §3, §4, §5, §6

[15] = biological target: T6, MaxRH-Y115F/Y123F; assay: Tyrosine fluorescence quenching titration; assay type: binding; settings: 1 µM MaxRH-Y115F/Y123F
Experimental: as §2, §3, §4, §5, §6

[16] = biological target: T8, MaxRH-N78E (Homo sapiens, UniProt P61244, K77E/M74V/N78E/Q72L/R75Q/R76A/Y73S); assay: Tyrosine fluorescence quenching titration; assay type: binding; settings: MaxRH-N78E mutant
T8 construct: 6xHis tag + TEV site (N, cleaved yes); made in house; host or cells: E. coli BL21(DE3) pLysS
Experimental: as §2, §3, §4, §5, §6

[17] = biological target: T9, Myc353–437 A401E (Homo sapiens, UniProt P01106, A416E); assay: Tyrosine fluorescence quenching titration; assay type: binding; settings: Myc353–437 A401E mutant
T9 construct: We constructed Myc353–437 A401E to determine if the same flanking residue would be permissive; 6xHis tag + TEV site (N, cleaved yes); made in house; host or cells: E. coli BL21(DE3) pLysS
Experimental: as §2, §3, §4, §5, §6

[18] = biological target: T1, Myc402–412 peptide; assay: Tyrosine fluorescence quenching titration; assay type: binding
Experimental: as §2, §3, §4, §5, §6

[19] = biological target: T1, Myc402–412 peptide; assay: Circular dichroism with and without small molecule; settings: 2.5 µM Myc402–412 peptide, 50 µM 34RH
Experimental: as §1

[20] = biological target: T5, Myc353–437; assay: Tyrosine fluorescence quenching titration, excess 34RH; settings: 1 µM Myc353–437, excess 34RH, 1xPBS, 25 °C, pH 7.4; Langmuir binding isotherm; read-out: dissociation constant (KD)
Experimental: as §2
For excess 34RH tyrosine fluorescence quenching experiments, samples were prepared with the following buffer components: sterile filtered water, 1xPBS (137 mM NaCl, 2.7 mM KCl, 4.3 mM Na2HPO4, 1.4 mM KH2PO4), and 5% total DMSO. […] All samples for fluorescence measurements maintained a final 5% DMSO concentration.
as §4, with “The samples were excited at 274 nm, and the emission spectra were obtained from 285 to 340 nm using 5 nm excitation and 5 nm emission slits using a Horiba Fluoromax 4 fluorometer.” left out, “(3) Fcorr=Fobs∗ 10^Aex+ Aem/2” left out

[21] = Imide pKa determination by UV/Vis; assay type: physicochemical; settings: 1xPBS at various pH values; UV/Vis absorbance at 327 nm, 10 µM 34RH in 1xPBS; read-out: pKa of the imide group of the rhodanine heterocycle
Experimental: The imide pKa of 34RH was determined using UV/Vis by measuring the absorbance of 10 µM of 34RH in 1xPBS at various pH values using an Agilent 8453 UV/Vis spectrophotometer (Figure S2). The absorbance at 327 nm for each pH value was fit to a curve using the Henderson-Hasselbalch (shown in Equations (1) and (2)), where c is the pKa, x is the pH, a is the signal for the fully protonated acid, and b is the signal for the fully ionized base. (1) pKa−pH=log acid/base (2) y=a+b∗10^c−x/1+10^c−x

T5 sequence (P01106 368-452): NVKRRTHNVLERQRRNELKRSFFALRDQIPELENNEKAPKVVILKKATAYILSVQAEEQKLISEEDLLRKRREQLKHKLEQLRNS
T3 sequence (P61244 whole entry Q72L/Y73S/M74V/R75Q/R76A/K77E): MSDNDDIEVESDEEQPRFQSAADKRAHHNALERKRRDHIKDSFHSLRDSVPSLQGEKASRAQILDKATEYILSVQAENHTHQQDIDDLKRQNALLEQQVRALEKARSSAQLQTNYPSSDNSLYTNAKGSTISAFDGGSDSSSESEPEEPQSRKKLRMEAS
T4 sequence (P61244 whole entry): as the sequence (P61244 whole entry Q72L/Y73S/M74V/R75Q/R76A/K77E) above, with L72Q, S73Y, V74M, Q75R, A76R, E77K counted along it
T2 sequence (P61244 1-151 isoform P61244-2): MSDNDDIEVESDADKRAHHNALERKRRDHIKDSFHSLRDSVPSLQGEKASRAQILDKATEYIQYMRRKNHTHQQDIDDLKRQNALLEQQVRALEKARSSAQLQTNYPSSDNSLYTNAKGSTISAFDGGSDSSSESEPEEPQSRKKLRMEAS
T6 sequence (P61244 whole entry Q72L/Y73S/M74V/R75Q/R76A/K77E/Y115F/Y123F): as the sequence (P61244 whole entry Q72L/Y73S/M74V/R75Q/R76A/K77E) above, with Y115F, Y123F counted along it
T8 sequence (P61244 whole entry Q72L/Y73S/M74V/R75Q/R76A/K77E/N78E): as the sequence (P61244 whole entry Q72L/Y73S/M74V/R75Q/R76A/K77E) above, with N78E counted along it
T7 sequence (P01106 368-452 E425N): as the sequence (P01106 368-452) above, with E58N counted along it
T9 sequence (P01106 368-452 A416E): as the sequence (P01106 368-452) above, with A49E counted along it

SMILES: CCc1ccc(/C=C2/SC(=S)NC2=O)cc1 [1RH]
effect on Myc-Max dimerization [1]: disrupted Myc-Max dimerization | interaction with Max [2]: not to interact | effect on peptide secondary structure (CD) [3]: induced a substantial shift in the peptide’s secondary structure

effect on CD spectrum [4]: no indication of perturbation | effect on conformation (CD) ([5]; pH 6): remaining disordered | effect on conformation (CD) ([5]; pH 7.4): did not change the conformation | effect on CD spectrum [6]: does not alter the CD | effect on conformation (CD) [8]: remains disordered | DLS correlation function (nano-sized particles) ([9]; 100 µM): a correlation was observed | DLS correlation function (nano-sized particles) ([9]; concentrations below 50 µM): no correlation function | solubility based on dynamic light scattering ([9]; neutral pH): good solubility | Kd [10]: 5.9 ± 0.8 µM | binding by tyrosine quenching [11]: eliminated binding | titratable tyrosine fluorescence quenching (binding) [12]: no titratable quenching | Kd ([13]; pH 6): 9.1 ± 3.9 µM | Kd ([13]; pH 7.4): 23.4 ± 1.1 µM | affinity weaker than in the Myc context ([13]; MaxRH vs Myc353–437, pH 7.4): about 6 fold | affinity weaker relative to the peptide ([13]; MaxRH vs Myc402–412 peptide, pH 7.4): ~2 fold | improvement of binding to MaxRH at pH 6 ([13]; pH 6 vs pH 7.4): 2.5 fold | titratable tyrosine fluorescence quenching (binding) ([14]; pH 6 (monomeric)): no titratable quenching | titratable tyrosine fluorescence quenching (binding) ([14]; pH 7.4): does not exhibit titratable quenching | Kd [15]: 14.9 ± 1.9 µM | binding by titratable tyrosine quenching [16]: complete loss of observable binding | binding by tyrosine quenching [17]: no detectable binding | change in affinity, Myc402–412 peptide vs Myc353–437 [18]: 3 fold | difference in affinity between Myc353–437 and Myc402–412 contexts [18]: less than 0.7 kcal mol^−1 | Kd ([18]; 1 µM Myc402–412 peptide, excess 34RH, Langmuir binding isotherm): 11.5 ± 1.2 µM | Kd [20]: 3.9 ± 1.3 µM | pKa [21]: 5.3 ± 0.3
SMILES: O=C1NC(=S)S/C1=C\c1ccc(C(=O)O)cc1 [34RH, (Z)-4-((4-oxo-2-thioxothiazolidin-5-ylidene)methyl)benzoic acid]
effect on average conformation (CD) [7]: did not substantially alter the average conformation | effect on structural ensemble (CD) [19]: does not exhibit perturbations to the structural ensemble
